The results in this text go back to article PMC12136037, “Type II kinase inhibitors that target Parkinson’s disease–associated LRRK2” (Science Advances, 2025).

Holding throughout (assay): DSF 100 kinase selectivity screen;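 note: compound tested at 20 µM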
Type in all cases: binding

Assay [1] concerns the target T1, ~100 representative kinases (Homo sapiens, UniProt O15164).
T1 construct: Recombinant protein kinase domains with a concentration of 2 μM
T1 sequence (O15164 1-1050): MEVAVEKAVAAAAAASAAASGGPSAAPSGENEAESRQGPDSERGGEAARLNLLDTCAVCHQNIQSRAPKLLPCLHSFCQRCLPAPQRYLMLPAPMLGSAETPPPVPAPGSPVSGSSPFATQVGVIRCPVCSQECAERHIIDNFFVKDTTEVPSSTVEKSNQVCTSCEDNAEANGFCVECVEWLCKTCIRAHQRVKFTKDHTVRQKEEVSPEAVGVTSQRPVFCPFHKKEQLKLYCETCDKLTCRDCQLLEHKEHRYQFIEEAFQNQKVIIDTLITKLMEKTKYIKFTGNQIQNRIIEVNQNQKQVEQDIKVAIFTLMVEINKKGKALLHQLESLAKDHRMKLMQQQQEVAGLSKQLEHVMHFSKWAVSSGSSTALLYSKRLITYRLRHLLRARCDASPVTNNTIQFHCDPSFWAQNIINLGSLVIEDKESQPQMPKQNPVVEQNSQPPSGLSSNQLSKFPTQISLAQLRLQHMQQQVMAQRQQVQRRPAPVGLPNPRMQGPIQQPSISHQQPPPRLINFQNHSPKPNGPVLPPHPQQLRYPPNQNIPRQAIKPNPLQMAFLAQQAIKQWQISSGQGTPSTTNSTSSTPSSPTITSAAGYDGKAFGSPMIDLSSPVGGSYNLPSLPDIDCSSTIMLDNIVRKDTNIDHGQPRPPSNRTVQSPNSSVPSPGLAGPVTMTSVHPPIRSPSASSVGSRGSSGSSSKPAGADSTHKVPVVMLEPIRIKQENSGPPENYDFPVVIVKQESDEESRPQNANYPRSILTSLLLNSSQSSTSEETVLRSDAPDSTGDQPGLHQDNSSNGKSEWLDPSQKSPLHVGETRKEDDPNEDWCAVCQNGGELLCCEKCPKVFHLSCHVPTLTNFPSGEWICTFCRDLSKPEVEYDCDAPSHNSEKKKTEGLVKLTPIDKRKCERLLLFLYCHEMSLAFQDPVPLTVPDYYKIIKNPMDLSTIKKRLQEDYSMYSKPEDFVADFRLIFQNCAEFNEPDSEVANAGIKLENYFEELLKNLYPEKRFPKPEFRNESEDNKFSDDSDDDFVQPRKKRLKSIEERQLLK
Particulars: Protein TIF1; DSF; average of three replicates. Put shortly:
(§1)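 Each kinase domain, at 2 μM, is mixed with 20 μM test compound and SYPRO Orange in Hepes (20 mM, pH 7.5) with 500 mM NaCl. Temperature is then raised at 3°C/min and fluorescence-monitored unfolding yields the melting temperature change, ΔTm in degrees Celsius.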

Assay [2] deals with T2, ~100 representative kinases (Homo sapiens, UniProt Q16654).
T2 construct: Recombinant protein kinase domains with a concentration of 2 μM
T2 sequence (Q16654 whole entry, the tested form may be a part): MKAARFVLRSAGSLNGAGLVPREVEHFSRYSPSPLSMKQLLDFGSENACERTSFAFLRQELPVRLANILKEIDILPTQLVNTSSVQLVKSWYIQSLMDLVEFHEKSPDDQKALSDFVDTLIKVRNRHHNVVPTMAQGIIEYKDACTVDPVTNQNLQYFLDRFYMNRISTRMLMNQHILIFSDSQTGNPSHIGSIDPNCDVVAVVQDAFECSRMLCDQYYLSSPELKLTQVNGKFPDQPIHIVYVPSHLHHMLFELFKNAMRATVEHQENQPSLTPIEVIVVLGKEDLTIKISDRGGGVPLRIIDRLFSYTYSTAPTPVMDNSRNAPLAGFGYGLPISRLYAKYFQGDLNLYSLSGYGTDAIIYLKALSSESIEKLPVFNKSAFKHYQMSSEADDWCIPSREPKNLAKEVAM
Particulars: protein PDK4; average of three replicates. Put shortly: as §1

The target in assay [3] is T3, ~100 representative kinases (Homo sapiens, UniProt Q96KB5).
T3 construct: Recombinant protein kinase domains with a concentration of 2 μM
T3 sequence (Q96KB5 1-322): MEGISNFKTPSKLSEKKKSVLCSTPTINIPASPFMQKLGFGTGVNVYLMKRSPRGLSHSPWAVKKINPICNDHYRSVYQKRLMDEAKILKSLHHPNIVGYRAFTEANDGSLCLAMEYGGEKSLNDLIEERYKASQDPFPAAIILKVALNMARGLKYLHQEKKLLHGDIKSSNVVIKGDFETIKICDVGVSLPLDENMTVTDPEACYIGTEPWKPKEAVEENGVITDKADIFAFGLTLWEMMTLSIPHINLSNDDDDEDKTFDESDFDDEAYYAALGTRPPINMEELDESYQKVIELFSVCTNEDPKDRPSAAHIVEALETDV
Particulars: Protein TOPK; DSF; average of three replicates. Put shortly: as §1

The target of assay [4] is T4, ~100 representative kinases (Homo sapiens, UniProt Q9BRS2).
T4 construct: Recombinant protein kinase domains with a concentration of 2 μM
T4 sequence (Q9BRS2 1-568): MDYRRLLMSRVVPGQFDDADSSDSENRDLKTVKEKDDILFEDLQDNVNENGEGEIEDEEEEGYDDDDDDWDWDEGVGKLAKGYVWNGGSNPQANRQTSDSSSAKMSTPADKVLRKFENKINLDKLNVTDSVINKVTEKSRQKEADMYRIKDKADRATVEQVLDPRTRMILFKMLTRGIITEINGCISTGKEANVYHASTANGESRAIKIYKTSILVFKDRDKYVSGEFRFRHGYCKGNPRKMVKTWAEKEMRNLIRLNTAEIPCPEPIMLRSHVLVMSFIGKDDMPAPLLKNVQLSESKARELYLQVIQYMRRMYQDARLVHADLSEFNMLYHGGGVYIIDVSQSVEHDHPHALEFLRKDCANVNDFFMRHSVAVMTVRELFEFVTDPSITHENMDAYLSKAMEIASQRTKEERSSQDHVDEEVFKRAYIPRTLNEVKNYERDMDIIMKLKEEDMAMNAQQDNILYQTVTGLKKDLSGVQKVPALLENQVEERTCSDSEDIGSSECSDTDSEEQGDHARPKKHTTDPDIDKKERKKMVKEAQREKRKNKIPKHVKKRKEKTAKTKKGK
The note with it: Protein RIOK1; DSF; average of three replicates. The method, boiled down: as §1

Assay [5] has as its target T5, ~100 representative kinases (Homo sapiens, UniProt Q02750).
T5 construct: Recombinant protein kinase domains with a concentration of 2 μM
Particulars: protein MAP2K1; average of three replicates. Put shortly: as §1

T5 sequence (Q02750 whole entry, the tested form may be a part): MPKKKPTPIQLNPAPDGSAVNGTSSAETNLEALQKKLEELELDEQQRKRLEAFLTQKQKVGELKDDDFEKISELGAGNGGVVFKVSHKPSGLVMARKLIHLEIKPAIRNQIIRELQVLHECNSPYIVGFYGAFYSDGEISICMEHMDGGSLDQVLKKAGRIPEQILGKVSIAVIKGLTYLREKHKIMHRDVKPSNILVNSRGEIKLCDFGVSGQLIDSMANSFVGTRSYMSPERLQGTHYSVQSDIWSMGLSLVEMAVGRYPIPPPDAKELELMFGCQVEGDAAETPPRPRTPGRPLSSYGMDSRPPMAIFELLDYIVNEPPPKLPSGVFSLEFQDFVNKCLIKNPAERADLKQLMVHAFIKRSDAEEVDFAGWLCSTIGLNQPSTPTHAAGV

For `Cc1ccc(C(=O)Nc2ccc(CN3CCN(C)CC3)c(C(F)(F)F)c2)cc1C#Cc1c[nH]c2ncnc(N3CCOCC3)c12` [Compound 1], the dTm in assay [1] is 0.45 K; in assay [2] it was -0.54 K; in assay [3] it was 2.13 K; in assay [4] it was 4.09 K.

Regarding `Cc1cc(NC(=O)C2(C(=O)Nc3ccc(F)cc3)CC2)cc(-c2c[nH]c3ncnc(N4CCOCC4)c23)c1` [Compound 6], the figures for the dTm in assay [1] and in assay [5] were 2.83 K and 1.10 K, respectively.

For the compound `O=C(Nc1cccc(-c2c[nH]c3ncnc(N4CCOCC4)c23)c1)C1(C(=O)Nc2cccc3c2CCC3)CC1` [Compound 11], the values for the dTm in assay [1] and in assay [5] were 3.41 K and 2.12 K, respectively.

As for `O=C(Nc1cccc(-c2c[nH]c3ncnc(N4CCOCC4)c23)c1)C1(C(=O)Nc2ccc(F)c(Br)c2)CC1` [Compound 19], the dTm in assay [1] is listed as 3.26 K; in assay [5] it was 2.40 K.

With `CC(C)(C)c1cccc(NC(=O)C2(C(=O)Nc3cccc(-c4c[nH]c5ncnc(N6CCOCC6)c45)c3)CC2)c1` [Compound 22], the figures for the dTm in assay [1] and in assay [5] were 5.42 K and 2.23 K, respectively.

On to `O=C(Nc1cccc(-c2c[nH]c3ncnc(N4CCOCC4)c23)c1)C1(C(=O)Nc2cc(Br)c(F)cc2F)CC1` [Compound 25], for which the figures for the dTm in assay [1] and in assay [5] were 3.01 K and 2.16 K, respectively.

Consider `O=C(Nc1cccc(-c2c[nH]c3ncnc(N4CCOCC4)c23)c1)C1(C(=O)Nc2ccc(F)c(Br)c2F)CC1` [Compound 26], for which the figures for the dTm in assay [1] and in assay [5] were 2.87 K and 2.67 K, respectively.

Consider `O=C(Nc1cc(F)cc(Br)c1)C1(C(=O)Nc2cccc(-c3c[nH]c4ncnc(N5CCOCC5)c34)c2)CC1` [Compound 27], for which the dTm was 4.20 K in assay [1] and 2.13 K in assay [5].

Turning to `Cc1ccc(-n2nc(C(C)(C)C)cc2NC(=O)Nc2cccc(-c3c[nH]c4ncnc(N5CCOCC5)c34)c2)cc1` [Compound 29], the dTm turned out to be 0.97 K in assay [1] and 2.87 K in assay [5].

As for `Cc1ccc(-n2nc(C(C)(C)C)cc2NC(=O)Nc2cccc(-c3c[nH]c4nc(Cl)nc(N5CCOCC5)c34)c2)cc1` [Compound 30], the dTm in assay [1] is given as 1.73 K; in assay [5], 0.49 K.

Consider `CC(=O)N1CCN(c2nc(Cl)nc3[nH]cc(-c4cccc(NC(=O)Nc5cc(C(C)(C)C)nn5-c5ccc(C)cc5)c4)c23)CC1` [Compound 31], for which the dTm in assay [1] amounted to 0.90 K; in assay [5], 0.59 K.

Consider `CCSc1nc(NC)c2c(-c3cccc(NC(=O)Nc4cc(C(C)(C)C)nn4-c4ccc(C)cc4)c3)c[nH]c2n1` [Compound 32], for which the figures for the dTm in assay [1] and in assay [5] were 0.82 K and 0.11 K, respectively.

In the case of `COc1cc(C(=O)N2CCOCC2)c(F)cc1Nc1nc(N(C)C)c2c(Cl)c[nH]c2n1` [Compound 36], the dTm in assay [1] is -2.24 K; in assay [5], -0.30 K.

As for `COc1cc(S(C)(=O)=O)ccc1Nc1nc(N(C)C)c2c(Cl)c[nH]c2n1` [Compound 37], the dTm is reported as -0.80 K in assay [1] and -0.22 K in assay [5].

With `CCNc1nc(Nc2cc(F)c(C(=O)N3CCOCC3)cc2OC)ncc1C(F)(F)F` [GNE-7915], the dTm in assay [1] is -0.22 K; in assay [5], 0.0455 K; in assay [2], -0.0168 K; in assay [3], 0.03 K; in assay [4], -0.09 K.

`Cc1ccc(C(=O)Nc2ccc(CN3CCN(C)CC3)c(C(F)(F)F)c2)cc1C#Cc1cnc2[nH]ncc2c1` [GZD-824, reference compound]: the dTm in assay [1] is 0.34 K; in assay [5] it was 0.63 K; in assay [2], -0.28 K; in assay [3], 4.33 K; in assay [4] it was 2.49 K.

`C[C@@H]1CN(c2cc(-c3n[nH]c4ccc(OC5(C)CC5)cc34)ncn2)C[C@H](C)O1` [MLi2]: the dTm is on record as 0.28 K in assay [1]; -0.0332 K in assay [5]; -0.0742 K in assay [2]; 0.0743 K in assay [3]; -1.66 K in assay [4].

In the case of `Cn1cc(-c2c[nH]c3ncnc(N4CCOCC4)c23)cc1C#N` [PFE-360], the dTm in assay [1] is 0.08 K; in assay [5] it was 0.65 K; in assay [2] it was -0.55 K; in assay [3], 0.66 K; in assay [4] it was -0.58 K.

As for `Cc1ccc(C(=O)Nc2ccc(CN3CCN(C)CC3)c(C(F)(F)F)c2)cc1C#Cc1cnc2cccnn12` [Ponatinib, reference compound], the dTm in assay [1] is recorded as 0.0214 K; in assay [2], -0.09 K; in assay [3], 2.32 K; in assay [4], 1.86 K.

Regarding `CNC(=O)c1cc(Oc2ccc(NC(=O)Nc3cc(C(C)(C)C)nn3-c3ccc4ncccc4c3)c(F)c2)ccn1` [Rebastinib, reference compound], the dTm stood at 0.87 K in assay [1] and 0.92 K in assay [5].
